According to paper PMC13210772, “Dual FLT3/MAPK14 Proteolysis-Targeting Chimera (PROTAC) Induces Potent Acute Myeloid Leukemia Cell Death” (Pharmaceuticals, 2026):

Biological target: MAPK14 (Homo sapiens, UniProt Q16539)
Test: Global proteomics in MOLT-4 cells
Assay type: cell-based
Parameters: global protein expression profiles of MOLT-4 cells treated with 50 nM MA191 for 5 h; endogenous in cells; host or cells: MOLT-4
Conditions: 50 nM, 5 h
Procedure: Proteome analyses can uncover unexpected targets of PROTACs. Since AML cells with FLT3-ITD are massively damaged by MA191, we applied it to MOLT-4 cells and analyzed them by proteomics.
MOLT4 cells were lysed using a buffer (50 mM NaCl, 8 M urea, 50 mM EPPS, pH 8.5, with phosphatase and protease inhibitors) and homogenized by bead beating (3 × 30 s at 2400 strokes/min). Protein concentration was determined using the Bradford assay. Fifty micrograms of protein per sample were reduced, alkylated, and precipitated using methanol/chloroform. The dried protein pellet was resuspended in 4 M urea/50 mM HEPES (pH 7.4) and diluted to 1 M urea with 200 mM EPPS (pH 8).
Proteins were digested with LysC and trypsin (1:50, enzyme:protein) for 12 h at 37 °C. Samples were acidified to pH 2–3 with formic acid and desalted using C18 solid-phase extraction. […]
diaPASEF raw data were analyzed using DIA-NN 1.8 in library-free mode, enabling peptide/protein identification, FDR control, protein assembly, and quantification through in silico digestion and deep learning-based predictions. […] Precursor quantification used Robust LC with RT-based cross-run normalization.
Proteins with low total abundance (<2000 × number of treatments) were excluded. […] Significant differences versus control were assessed using two-sided moderated t-tests via the limma package in R framework (R Development Core Team, 2014). […]

Chain of MAPK14 (Q16539 whole entry): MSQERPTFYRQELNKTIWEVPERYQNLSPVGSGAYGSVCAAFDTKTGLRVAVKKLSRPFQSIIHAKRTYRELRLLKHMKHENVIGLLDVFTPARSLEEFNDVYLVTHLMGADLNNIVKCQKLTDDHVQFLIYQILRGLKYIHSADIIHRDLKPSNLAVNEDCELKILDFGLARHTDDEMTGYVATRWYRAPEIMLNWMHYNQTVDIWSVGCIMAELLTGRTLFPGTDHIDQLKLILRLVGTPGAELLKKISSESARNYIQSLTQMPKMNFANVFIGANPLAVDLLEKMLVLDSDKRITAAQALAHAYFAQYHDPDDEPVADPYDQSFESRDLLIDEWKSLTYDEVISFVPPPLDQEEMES

- MAPK14 protein level, proteome analysis: striking downregulation of MAPK14
Structure (SMILES): Cc1ncsc1-c1ccc([C@H](C)NC(=O)[C@@H]2C[C@@H](O)CN2C(=O)[C@@H](NC(=O)[C@H]2CC[C@H](C(=O)N3CCN(CCNC(=O)c4cc(Oc5ccc(NC(=O)Nc6cc(C(C)(C)C)on6)cc5)ccn4)CC3)CC2)C(C)(C)C)cc1 [MA191, 4-(4-(3-(5-(tert-Butyl)isoxazol-3-yl)ureido)phenoxy)-N-(2-(4-(trans-4-(((S)-1-((2S,4R)-4-hydroxy-2-(((S)-1-(4-(4-methylthiazol-5-yl)phenyl)ethyl)carbamoyl)pyrrolidin-1-yl)-3,3-dimethyl-1-oxobutan-2-yl)carbamoyl)cyclohexanecarbonyl)piperazin-1-yl)ethyl)picolinamide]
